Data taken from patent US8563542B2 (Cyclacel Limited, priority 2007, dated 2013).
Read-outs that look alike come from different tables or passages of the source.

Target: PLK1 (Homo sapiens, UniProt P53350)
Assay: PLK1 protein kinase assay (CDC25C phosphorylation, [γ-32P]-ATP)
Assay type: biochemical
Details: for IC50: read-out: PLK1 IC50
[1] = Table 2, PLK1 IC50, class symbols

Sequence of PLK1 (P53350 whole entry): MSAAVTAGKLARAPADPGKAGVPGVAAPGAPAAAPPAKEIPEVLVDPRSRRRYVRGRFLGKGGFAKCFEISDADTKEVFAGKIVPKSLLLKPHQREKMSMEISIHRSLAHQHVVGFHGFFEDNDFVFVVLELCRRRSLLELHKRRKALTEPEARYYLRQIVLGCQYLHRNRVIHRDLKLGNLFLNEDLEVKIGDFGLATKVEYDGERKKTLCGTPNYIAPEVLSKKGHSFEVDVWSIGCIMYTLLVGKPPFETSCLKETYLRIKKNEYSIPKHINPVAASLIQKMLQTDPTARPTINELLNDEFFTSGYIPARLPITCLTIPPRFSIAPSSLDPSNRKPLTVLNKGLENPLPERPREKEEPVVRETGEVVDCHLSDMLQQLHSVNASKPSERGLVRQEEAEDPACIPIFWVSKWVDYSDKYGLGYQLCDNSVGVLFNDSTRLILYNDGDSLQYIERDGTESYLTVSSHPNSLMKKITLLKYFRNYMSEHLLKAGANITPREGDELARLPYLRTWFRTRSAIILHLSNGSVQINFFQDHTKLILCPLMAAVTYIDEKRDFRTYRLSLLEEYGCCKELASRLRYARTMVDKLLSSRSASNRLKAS

Structure (SMILES)	IC50 [1]	IC50 (Table 3)	Ki (Table 6)
COc1cc(C(=O)NC2CN3CCC2CC3)ccc1Nc1ncc2c(n1)N(C1CCCC1)CC1(CC1)C(=O)N2C (racemic) [Compound 186, (±)-4-(9′-cyclopentyl-5′-methyl-6′-oxo-5′,6′,8′,9′-tetrahydrospiro[cyclopropane-1,7′-pyrimido[4,5-b][1,4]diazepine]-2′-ylamino)-3-methoxy-N-(quinuclidin-3-yl)benzamide]	< 100 nM	< 100 nM	–
COc1cc(C(=O)NC2CN3CCC2CC3)ccc1Nc1ncc2c(n1)N(C1CCCC1)CC(C)(C)C(=O)N2C (racemic) [Compound 194, (±)-4-(9-cyclopentyl-5,7,7-trimethyl-6-oxo-6,7,8,9-tetrahydro-5H-pyrimido[4,5-b][1,4]diazepin-2-ylamino)-3-methoxy-N-(quinuclidin-3-yl)benzamide]	< 100 nM	< 100 nM	–
COc1cc(C(=O)NN2CCN(C)CC2)ccc1Nc1ncc2c(n1)N(C1CCCC1)CC(C)(C)C(=O)N2C [Compound 195, 4-(9-Cyclopentyl-5,7,7-trimethyl-6-oxo-6,7,8,9-tetrahydro-5H-pyrimido[4,5-b][1,4]diazepin-2-ylamino)-3-methoxy-N-(4-methyl-piperazin-1-yl)-benzamide]	< 100 nM	< 100 nM	–
COc1cc(C(=O)NN2CCN(C)CC2)ccc1Nc1ncc2c(n1)N(C1CCCC1)CC1(CCC1)C(=O)N2C [Compound 221, 4-(9′-cyclopentyl-5′-methyl-6′-oxo-5′,6′,8′,9′-tetrahydrospiro[cyclobutane-1,7′-pyrimido[4,5-b][1,4]diazepine]-2′-ylamino)-3-methoxy-N-(4-methylpiperazin-1-yl)benzamide]	< 100 nM	< 100 nM	–
COc1cc(C(=O)NN2CCN(C)CC2)ccc1Nc1ncc2c(n1)N(C1CCCC1)CC1(CC1)C(=O)N2C [Compound 254, 4-(9′-cyclopentyl-5′-methyl-6′-oxo-5′,6′,8′,9′-tetrahydrospiro[cyclopropane-1,7′-pyrimido[4,5-b][1,4]diazepine]-2′-ylamino)-3-methoxy-N-(4-methylpiperazin-1-yl)benzamide]	< 100 nM	< 100 nM	< 10 nM
COc1cc(C(=O)NC2CCN(C3CCOCC3)CC2)ccc1Nc1ncc2c(n1)N(C1CCCC1)CCC(=O)N2C [Compound 345, 4-(9-Cyclopentyl-5-methyl-6-oxo-6,7,8,9-tetrahydro-5H-pyrimido[4,5-b][1,4]diazepin-2-ylamino)-3-methoxy-N-[1-(tetrahydro-pyran-4-yl)-piperidin-4-yl]-benzamide]	< 100 nM	< 100 nM	–
COc1cc(C(=O)N[C@H]2CN3CCC2CC3)ccc1Nc1ncc2c(n1)N(C1CCCC1)CC1(CC1)C(=O)N2C [Compound 347, (R)-4-(9′-cyclopentyl-5′-methyl-6′-oxo-5′,6′,8′,9′-tetrahydrospiro[cyclopropane-1,7′-pyrimido[4,5-b][1,4]diazepine]-2′-ylamino)-3-methoxy-N-(quinuclidin-3-yl)benzamide]	< 100 nM	< 100 nM	–
COc1cc(C(=O)N[C@@H]2CN3CCC2CC3)ccc1Nc1ncc2c(n1)N(C1CCCC1)CC1(CC1)C(=O)N2C [Compound 348, (S)-4-(9′-cyclopentyl-5′-methyl-6′-oxo-5′,6′,8′,9′-tetrahydrospiro[cyclopropane-1,7′-pyrimido[4,5-b][1,4]diazepine]-2′-ylamino)-3-methoxy-N-(quinuclidin-3-yl)benzamide]	< 100 nM	< 100 nM	–
COc1cc(C(=O)N[C@H]2CC[C@H](N3CCN(CC4CC4)CC3)CC2)ccc1Nc1ncc2c(n1)N(C1CCCC1)CC1(CC1)C(=O)N2C [Compound 371, 4-(9′-cyclopentyl-5′-methyl-6′-oxo-5′,6′,8′,9′-tetrahydrospiro[cyclopropane-1,7′-pyrimido[4,5-b][1,4]diazepine]-2′-ylamino)-N-((trans)-4-(4-(cyclopropylmethyl)piperazin-1-yl)cyclohexyl)-3-methoxybenzamide]	–	< 100 nM	–
CN1CCN(NC(=O)c2ccc(Nc3ncc4c(n3)N(C3CCCC3)CC3(CCC3)C(=O)N4C)c(F)c2)CC1 [Compound 373, 4-(9′-cyclopentyl-5′-methyl-6′-oxo-5′,6′,8′,9′-tetrahydrospiro[cyclobutane-1,7′-pyrimido[4,5-b][1,4]diazepine]-2′-ylamino)-3-fluoro-N-(4-methylpiperazin-1-yl)benzamide]	–	< 100 nM	–
CN1CCN(NC(=O)c2ccc(Nc3ncc4c(n3)N(C3CCCC3)CC3(CC3)C(=O)N4C)c(F)c2)CC1 [Compound 374, 4-(9′-Cyclopentyl-5′-methyl-6′-oxo-5′,6′,8′,9′-tetrahydrospiro[cyclopropane-1,7′-pyrimido[4,5-b][1,4]diazepine]-2′-ylamino)-3-fluoro-N-(4-methylpiperazin-1-yl)benzamide]	–	< 100 nM	–
COc1cc(C(=O)NN2CCN(CCO)CC2)ccc1Nc1ncc2c(n1)N(C1CCCC1)CC1(CC1)C(=O)N2C [Compound 375, 4-(9′-Cyclopentyl-5′-methyl-6′-oxo-5′,6′,8′,9′-tetrahydrospiro[cyclopropane-1,7′-pyrimido[4,5-b][1,4]diazepine]-2′-ylamino)-N-(4-(2-hydroxyethyl)piperazin-1-yl)-3-methoxybenzamide]	–	< 100 nM	–
COc1cc(C(=O)NN2CCOCC2)ccc1Nc1ncc2c(n1)N(C1CCCC1)CC1(CC1)C(=O)N2C [Compound 376, 4-(9′-Cyclopentyl-5′-methyl-6′-oxo-5′,6′,8′,9′-tetrahydrospiro[cyclopropane-1,7′-pyrimido[4,5-b][1,4]diazepine]-2′-ylamino)-3-methoxy-N-morpholinobenzamide]	–	< 100 nM	–
COc1cc(C(=O)N[C@H]2CC[C@H](N3CCN(CC4CC4)CC3)CC2)ccc1Nc1ncc2c(n1)N(C1CCCC1)CC1(CCC1)C(=O)N2C [Compound 377, 4-(9′-cyclopentyl-5′-methyl-6′-oxo-5′,6′,8′,9′-tetrahydrospiro[cyclobutane-1,7′-pyrimido[4,5-b][1,4]diazepine]-2′-ylamino)-N-((trans)-4-(4-(cyclopropylmethyl)piperazin-1-yl)cyclohexyl)-3-methoxybenzamide]	–	< 100 nM	–
COc1cc(C(=O)N[C@H]2CC[C@H](N3CCN(CC4CC4)CC3)CC2)ccc1Nc1ncc2c(n1)N(C1CCCC1)CCC(=O)N2C [Compound 378, 4-(9-cyclopentyl-5-methyl-6-oxo-6,7,8,9-tetrahydro-5H-pyrimido[4,5-b][1,4]diazepin-2-ylamino)-N-((trans)-4-(4-(cyclopropylmethyl)piperazin-1-yl)cyclohexyl)-3-methoxybenzamide]	–	< 100 nM	–
CCN1CCN([C@H]2CC[C@H](NC(=O)c3ccc(Nc4ncc5c(n4)N(C4CCCC4)CC4(CC4)C(=O)N5C)c(OC)c3)CC2)CC1 [Compound 379, 4-(9′-cyclopentyl-5′-methyl-6′-oxo-5′,6′,8′,9′-tetrahydrospiro[cyclopropane-1,7′-pyrimido[4,5-b][1,4]diazepine]-2′-ylamino)-N-((trans)-4-(4-ethylpiperazin-1-yl)cyclohexyl)-3-methoxybenzamide]	–	< 100 nM	–
CCN1CCN([C@H]2CC[C@@H](NC(=O)c3ccc(Nc4ncc5c(n4)N(C4CCCC4)CC4(CC4)C(=O)N5C)c(OC)c3)CC2)CC1 [Compound 380, 4-(9′-cyclopentyl-5′-methyl-6′-oxo-5′,6′,8′,9′-tetrahydrospiro[cyclopropane-1,7′-pyrimido[4,5-b][1,4]diazepine]-2′-ylamino)-N-((cis)-4-(4-ethylpiperazin-1-yl)cyclohexyl)-3-methoxybenzamide]	–	< 100 nM	–
COc1cc(C(=O)NC2CCC(N3CCCN(CC4CC4)CC3)CC2)ccc1Nc1ncc2c(n1)N(C1CCCC1)CC1(CC1)C(=O)N2C (centres unmarked) [Compound 381, 4-(9′-cyclopentyl-5′-methyl-6′-oxo-5′,6′,8′,9′-tetrahydrospiro[cyclopropane-1,7′-pyrimido[4,5-b][1,4]diazepine]-2′-ylamino)-N-(4-(4-(cyclopropylmethyl)-1,4-diazepan-1-yl)cyclohexyl)-3-methoxybenzamide]	–	< 100 nM	–
CCN1CCCN(C2CCC(NC(=O)c3ccc(Nc4ncc5c(n4)N(C4CCCC4)CC4(CC4)C(=O)N5C)c(OC)c3)CC2)CC1 (centres unmarked) [Compound 382, 4-(9′-cyclopentyl-5′-methyl-6′-oxo-5′,6′,8′,9′-tetrahydrospiro[cyclopropane-1,7′-pyrimido[4,5-b][1,4]diazepine]-2′-ylamino)-N-(4-(4-ethyl-1,4-diazepan-1-yl)cyclohexyl)-3-methoxybenzamide]	–	< 100 nM	–
COc1cc(C(=O)NC2CCC(N3CCCN(Cc4ccccc4)CC3)CC2)ccc1Nc1ncc2c(n1)N(C1CCCC1)CC1(CC1)C(=O)N2C (centres unmarked) [Compound 383, N-(4-(4-benzyl-1,4-diazepan-1-yl)cyclohexyl)-4-(9′-cyclopentyl-5′-methyl-6′-oxo-5′,6′,8′,9′-tetrahydrospiro[cyclopropane-1,7′-pyrimido[4,5-b][1,4]diazepine]-2′-ylamino)-3-methoxybenzamide]	–	100 to 1000 nM	–
COc1cc(C(=O)N[C@H]2CC[C@H](N3CCN(C)CC3)CC2)ccc1Nc1ncc2c(n1)N(C1CCCC1)CC1(CC1)C(=O)N2C [Compound 384, 4-(9′-cyclopentyl-5′-methyl-6′-oxo-5′,6′,8′,9′-tetrahydrospiro[cyclopropane-1,7′-pyrimido[4,5-b][1,4]diazepine]-2′-ylamino)-N-((trans)-4-(4-methylpiperazin-1-yl)cyclohexyl)-3-methoxybenzamide]	–	< 100 nM	–
COc1cc(C(=O)N[C@H]2CC[C@@H](N3CCN(C)CC3)CC2)ccc1Nc1ncc2c(n1)N(C1CCCC1)CC1(CC1)C(=O)N2C [Compound 385, 4-(9′-cyclopentyl-5′-methyl-6′-oxo-5′,6′,8′,9′-tetrahydrospiro[cyclopropane-1,7′-pyrimido[4,5-b][1,4]diazepine]-2′-ylamino)-N-((cis)-4-(4-methylpiperazin-1-yl)cyclohexyl)-3-methoxybenzamide]	–	< 100 nM	–
COc1cc(C(=O)N[C@H]2CC[C@H](N3CCN(Cc4ccccc4)CC3)CC2)ccc1Nc1ncc2c(n1)N(C1CCCC1)CC1(CC1)C(=O)N2C [Compound 386, N-((trans)-4-(4-benzylpiperazin-1-yl)cyclohexyl)-4-(9′-cyclopentyl-5′-methyl-6′-oxo-5′,6′,8′,9′-tetrahydrospiro[cyclopropane-1,7′-pyrimido[4,5-b][1,4]diazepine]-2′-ylamino)-3-methoxybenzamide]	–	< 100 nM	–
